Ends that are not written are not given here. Peptide text beside a SMILES is read from it.
Key:
H2O2-induced HUVECs [1] = assay: Apoptosis rate of H2O2-induced HUVECs, Hoechst 33342; assay type: cell-based, human; conditions: 200 μM pretreatment, 300 μM H2O2, model 214.03 ± 7.11% control, mean ± SD, n = 3
Experimental: (§1) The HUVECs were cultured for 24 h in a 96-well plate. Subsequently, the supernatant was aspirated and 20 μL of GSH (200 μM) and ACEi peptides (100 or 200 μM) were added in the protection groups, respectively. After 24 h, ACEi peptides were removed and H2O2 with the final concentration of 300 μM was added into the damage and protection groups for incubating 24 h.
Cell treatments with ACEi peptides, GSH, and H2O2 were according to the above method ([50]). The morphology of HUVECs was observed and photographed using an inverted microscope (Nikon Corporation, Kyoto, Japan). The percentage of apoptotic HUVECs was analyzed using previous methods ([17], [50]).

H2O2-induced HUVECs [2] = assay: Viability of H2O2-induced HUVECs (oxidative damage model); assay type: cell-based, human; conditions: for cell viability of H2O2-induced HUVECs: 200 μM pretreatment 24 h, then 300 μM H2O2 24 h, model group 50.31 ± 2.19%, mean ± SD, n = 3, SD
Experimental: (§2) The viability of HUVECs treated by TRP3, TRP6, TRP9, and TRP12 was determined using MTT method. HUVECs were seeded in the 96-well plates, cultured for 24 h, and treated with ACEi peptides (100, 200, and 300 μM) at 37° C for 24 h. MTT (final content of 2 mg/mL) was added into cell culture. After 4 h, DMSO was added into each well and monitored at 490 nm. The cell viability (% control) was calculated.
The oxidative damage model of HUVECs was established according to the previous method ([50]). HUVECs were seeded in the 96-well plates, cultured for 24 h, and treated with […] H2O2 at 37°C.
as §1

H2O2-induced HUVECs [3] = assay: MDA content in H2O2-induced HUVECs (assay kit); assay type: cell-based, human; conditions: 200 μM pretreatment, 300 μM H2O2, model 27.94 ± 1.06, mean ± SD, n = 3
Experimental: as §1
(§3) The level of ROS was determined using DCFH2-DA assay and expressed as % control ([50]). The levels of SOD (U/mgprot), GSH-Px (U/mgprot), NO (μmol/L), and MDA (nmol/mgprot) were measured using assay kits according to manufacturer’ protocols.

H2O2-induced HUVECs [4] = assay: NO production in H2O2-induced HUVECs (assay kit); assay type: cell-based, human; conditions: 200 μM pretreatment, 300 μM H2O2, model 15.54 ± 0.68 μM, mean ± SD, n = 3
Experimental: as §1, §3

H2O2-induced HUVECs [5] = assay: ROS level in H2O2-induced HUVECs, DCFH2-DA assay; assay type: cell-based, human; conditions: 200 μM pretreatment, 300 μM H2O2, model 146.6 ± 3.81%, mean ± SD, n = 3
Experimental: as §1, §3

HUVECs [6] = assay: NO production in HUVECs (assay kit); assay type: cell-based, human; conditions: for NO content in NE-treated HUVECs: peptide 200 μM plus NE, NE alone 18.59 ± 0.82 μM; for NO level in HUVECs: peptide 200 μM, 24 h, control 33.68 ± 0.96 μM, mean ± SD, n = 3, SD
Experimental: (§4) HUVECs were cultured in DMEM supplemented with 100 µg/mL streptomycin, 10% FBS (v/v), and 100 U/mL penicillin at 37°C in a humidified 5% CO2 atmosphere for 24 h.
(§5) After treating with ACEi peptides (TRP3, TRP6, TRP9, or TRP12, respectively) for 24 h, NO and ET-1 contents were separately determined by employing human NO and ET-1 assay kit as per manufactures’ protocol ([18]).

H2O2-induced HUVECs [7] = assay: SOD activity in H2O2-induced HUVECs (assay kit); assay type: cell-based, human; conditions: 200 μM pretreatment, 300 μM H2O2, model 108.57 ± 7.56, mean ± SD, n = 3
Experimental: as §1, §3

ACE = molecular target: T1, ACE (Oryctolagus cuniculus, UniProt P12822); assay: ACE inhibitory (ACEi) activity, FAPGG substrate, hippuric acid by HPLC at 228 nm; assay type: biochemical; conditions: at 1.5 mg/mL, mean ± SD, n = 3
T1 sequence (P12822 34-1310): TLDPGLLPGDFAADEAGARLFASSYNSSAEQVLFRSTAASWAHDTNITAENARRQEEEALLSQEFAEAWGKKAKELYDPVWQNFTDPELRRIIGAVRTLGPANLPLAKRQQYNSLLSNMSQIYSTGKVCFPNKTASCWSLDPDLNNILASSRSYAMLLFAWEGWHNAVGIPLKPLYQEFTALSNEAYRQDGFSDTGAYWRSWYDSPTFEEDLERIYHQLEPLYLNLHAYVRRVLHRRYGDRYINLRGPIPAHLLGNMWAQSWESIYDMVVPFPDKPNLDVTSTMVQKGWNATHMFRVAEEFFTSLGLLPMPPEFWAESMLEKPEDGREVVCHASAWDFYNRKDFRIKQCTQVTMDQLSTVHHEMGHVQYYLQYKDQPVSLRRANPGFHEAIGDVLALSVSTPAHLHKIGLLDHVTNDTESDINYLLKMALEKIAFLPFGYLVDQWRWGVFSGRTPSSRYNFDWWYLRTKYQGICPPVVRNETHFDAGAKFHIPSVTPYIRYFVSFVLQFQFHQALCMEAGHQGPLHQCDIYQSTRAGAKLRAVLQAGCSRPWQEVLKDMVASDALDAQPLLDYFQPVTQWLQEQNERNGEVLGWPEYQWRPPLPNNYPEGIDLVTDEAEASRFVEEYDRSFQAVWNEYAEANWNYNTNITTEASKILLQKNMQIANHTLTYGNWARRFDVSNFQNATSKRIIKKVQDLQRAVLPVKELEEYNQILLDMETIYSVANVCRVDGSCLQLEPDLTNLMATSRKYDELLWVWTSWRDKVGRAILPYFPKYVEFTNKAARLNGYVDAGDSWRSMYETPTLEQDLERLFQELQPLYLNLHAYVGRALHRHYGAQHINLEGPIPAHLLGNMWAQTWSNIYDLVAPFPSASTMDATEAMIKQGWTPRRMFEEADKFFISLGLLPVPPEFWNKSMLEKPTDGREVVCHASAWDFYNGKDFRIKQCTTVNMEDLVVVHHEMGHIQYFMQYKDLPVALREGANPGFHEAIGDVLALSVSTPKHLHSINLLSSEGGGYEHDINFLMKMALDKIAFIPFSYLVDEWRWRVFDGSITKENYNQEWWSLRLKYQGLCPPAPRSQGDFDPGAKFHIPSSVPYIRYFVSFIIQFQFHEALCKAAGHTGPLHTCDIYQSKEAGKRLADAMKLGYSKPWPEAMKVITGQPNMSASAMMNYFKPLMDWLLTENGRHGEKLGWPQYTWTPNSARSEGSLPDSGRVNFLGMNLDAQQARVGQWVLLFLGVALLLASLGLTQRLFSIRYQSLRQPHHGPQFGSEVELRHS
Experimental: The ACEi activity was measured by employing FAPGG as the substrate with the following modifications reported by Zhao et al. ([18]). In brief, the initial assay volume consisted of 50 μL of the substrate (3 mM), 50 μL of the ACE enzyme solution containing 1.25 mU of declared enzyme activity, and 50 μL of assay sample. All these solutions were incubated for 30 min at 37°C in a water bath first without mixing and then for an additional 30 min after mixing. ACE activity was stopped by 150 μL of glacial acetic acid. After that, the reaction mixture was separated by HPLC at 228 nm to determine the hippuric acid (HA) content produced due to ACE activity on the substrate. The control reaction mixture contained 50 μL of buffer instead of the assay sample and the control was expected to liberate the maximum amount of HA from the substrate due to uninhibited ACE activity. The percent inhibition of ACE activity was calculated as follows:
Inhibition activity(%)=[(HAcontrol−HAsample)/HAcontrol]×100%.
The IC50 value is the concentration of peptide inhibiting 50% activity of ACE.

HUVECs [8] = assay: ET-1 secretion in HUVECs (assay kit); assay type: cell-based, human; conditions: for ET-1 content in NE-treated HUVECs: peptide 200 μM plus NE, NE alone 73.57 ± 3.09 pg./mL; for ET-1 content in HUVECs: peptide 200 μM, control 55.37 ± 2.53 pg./mL, mean ± SD, n = 3, SD
Experimental: as §4, §5

H2O2-induced HUVECs [9] = assay: GSH-Px activity in H2O2-induced HUVECs (assay kit); assay type: cell-based, human; conditions: 200 μM pretreatment, 300 μM H2O2, model 26.95 ± 1.09, mean ± SD, n = 3
Experimental: as §1, §3

HUVECs [10] = assay: Viability of HUVECs, MTT method; assay type: cell-based, human
Experimental: as §4, §2

Compound	total apoptosis ratio (H2O2-induced HUVECs [1])	cell viability of H2O2-induced HUVECs (H2O2-induced HUVECs [2])	MDA content (H2O2-induced HUVECs [3])	NO content (H2O2-induced HUVECs [4])	viability of HUVECs (H2O2-induced HUVECs [2]; H2O2 300 μM alone (model establishment))	ROS level (H2O2-induced HUVECs [5])	NO content in NE-treated HUVECs (HUVECs [6])	NO level in HUVECs (HUVECs [6])	SOD activity (H2O2-induced HUVECs [7])	ACEi rate (ACEi activity) (ACE)	ET-1 content in NE-treated HUVECs (HUVECs [8])	ET-1 content in HUVECs (HUVECs [8])	GSH-Px activity (H2O2-induced HUVECs [9])	cell viability (HUVECs [10]; 300 μM, 24 h, MTT, % control, mean ± SD, n = 3)	cell viability (HUVECs [10]; 300 µM, SD)
N[C@@H](CCC(=O)N[C@@H](CS)C(=O)NCC(=O)O)C(=O)O [GSH, Glutathione, reference compound]	124.52 ± 4.82 % control	78.33 ± 3.08%	17.83 ± 0.87 nmol/mg prot	26.98 ± 1.05 µM											
OO [H2O2]					49.65 ± 1.68%										
CC[C@H](C)[C@H](N)C(=O)N[C@@H](CCCCN)C(=O)N[C@@H](CO)C(=O)N[C@@H](Cc1c[nH]c2ccccc12)C(=O)O [TRP6, Ile-Lys-Ser-Trp] (H-IKSW-OH; N-terminus and C-terminus assumed)	171.21 ± 6.92 % control		20.52 ± 0.92 nmol/mg prot	21.26 ± 0.59 µM		127.5 ± 4.32 % control	26.51 ± 1.06 µM	46.25 ± 1.39 µM	160.02 ± 9.04 U/mg prot	75.41 ± 2.56%	55.27 ± 2.19 pg/mL	44.68 ± 1.69 pg/mL	42.35 ± 1.86 U/mg prot		
CSCC[C@H](NC(=O)[C@H](Cc1c[nH]cn1)NC(=O)[C@H](CO)NC(=O)[C@@H](N)Cc1ccc(O)cc1)C(=O)O [TRP9, Tyr-Ser-His-Met] (H-YSHM-OH)	135.37 ± 4.28 % control	67.85 ± 3.05%	19.88 ± 0.75 nmol/mg prot	23.64 ± 0.82 µM		122.4 ± 4.47 % control	28.79 ± 0.78 µM	50.34 ± 1.45 µM		83.49 ± 3.42%	53.27 ± 2.34 pg/mL	41.26 ± 2.09 pg/mL	45.36 ± 2.07 U/mg prot	91.27 ± 4.05%	
H-WGESF-OH [TRP3, Trp-Gly-Glu-Ser-Phe]	173.12 ± 5.11 % control		21.76 ± 0.94 nmol/mg prot	20.38 ± 0.67 µM		128.7 ± 5.2 % control	23.69 ± 1.18 µM	46.52 ± 1.29 µM	154.58 ± 3.94 U/mg prot	69.54 ± 3.09%	59.74 ± 2.42 pg/mL	46.87 ± 2.03 pg/mL	38.46 ± 1.25 U/mg prot		86.72 ± 4.45%
WSPGF [TRP12, Trp-Ser-Pro-Gly-Phe]	162.08 ± 5.94 % control		21.08 ± 0.92 nmol/mg prot	22.09 ± 0.81 µM		123.7 ± 3.21 % control	26.79 ± 1.34 µM	46.32 ± 2.03 µM		78.24 ± 2.81%	54.71 ± 2.57 pg/mL	45.28 ± 1.88 pg/mL	39.75 ± 1.63 U/mg prot		
